Source: ChEMBL document CHEMBL1201862, “PubChem BioAssay data set” (2004)
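Tested at 5 concentrations; 48 h exposure; 96-well plates; endpoints linearly interpolated, else capped at highest concentration. GI50: concentration for 50% inhibition of growth.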 The source made the active and inactive calls. No stated cut-off is given here; in the data, active = GI50 up to about 1.1 µM and inactive = higher.

Legend:
Assay in all cases: inhibition of tumour cell growth, NCI panel, 48 h
SK-MEL-28 = system: SK-MEL-28
LOX IMVI = system: LOX IMVI
HOP-62 = system: HOP-62
KM12 = system: KM12
MOLT-4 = system: MOLT-4
M19-MEL = system: M19-MEL
ACHN = system: ACHN
OVCAR-4 = system: OVCAR-4
CAKI-1 = system: CAKI-1
Malme-3M = system: Malme-3M
HOP-92 = system: HOP-92
HCC 2998 = system: HCC 2998
OVCAR-8 = system: OVCAR-8
HT-29 = system: HT-29
SK-OV-3 = system: SK-OV-3
HCT-116 = system: HCT-116
NCI-H522 = system: NCI-H522
NCI-H226 = system: NCI-H226

Measured: GI50

CC(C1=CC=C2[C@@H]3CCC4CC(N(C)C)CC[C@]4(C)C3CC[C@]12C)N(C)C=O (stereo partly drawn)
inactive: SK-MEL-28 > 100 µM | LOX IMVI 25.7 µM | HOP-62 > 100 µM | KM12 > 100 µM | MOLT-4 > 100 µM | M19-MEL > 100 µM | ACHN > 100 µM | OVCAR-4 > 100 µM | CAKI-1 > 100 µM | Malme-3M > 100 µM | HOP-92 > 100 µM | HCC 2998 > 100 µM | OVCAR-8 > 100 µM | HT-29 25.3 µM | SK-OV-3 > 100 µM | HCT-116 > 100 µM | NCI-H522 > 100 µM

COC(=O)C(=Cc1cc(OC)c(OC)c(OC)c1-c1cc2c(cc1C1(C)OCCS1)OCO2)C(=O)OC (stereo not drawn)
inactive: SK-MEL-28 33.4 µM | LOX IMVI 22.6 µM | HOP-62 29.2 µM | KM12 19.1 µM | NCI-H226 32.2 µM | MOLT-4 24 µM | M19-MEL 23 µM | ACHN 55.3 µM | CAKI-1 19.3 µM | Malme-3M 37.3 µM | HOP-92 3.5 µM | HCC 2998 32.2 µM | OVCAR-8 31.6 µM | HT-29 37 µM | SK-OV-3 38.3 µM | HCT-116 24.6 µM | NCI-H522 15.8 µM

N#C/N=C(/N)NCN/C(N)=N\C#N
inactive: SK-MEL-28 > 100 µM | HOP-62 > 100 µM | KM12 > 100 µM | NCI-H226 > 100 µM | MOLT-4 > 100 µM | M19-MEL > 100 µM | ACHN > 100 µM | OVCAR-4 59.4 µM | CAKI-1 > 100 µM | Malme-3M > 100 µM | HOP-92 > 100 µM | HCC 2998 > 100 µM | OVCAR-8 > 100 µM | HT-29 > 100 µM | SK-OV-3 > 100 µM | HCT-116 > 100 µM | NCI-H522 > 100 µM

COc1ccc(O)cc1 [MEQUINOL]
inactive: SK-MEL-28 > 100 µM | LOX IMVI 49 µM | HOP-62 40.8 µM | KM12 42.7 µM | NCI-H226 > 100 µM | MOLT-4 74.3 µM | M19-MEL 95.3 µM | ACHN 31.3 µM | OVCAR-4 > 100 µM | CAKI-1 94.4 µM | Malme-3M 77.6 µM | HOP-92 44.1 µM | HCC 2998 > 100 µM | OVCAR-8 55.7 µM | HT-29 > 100 µM | SK-OV-3 > 100 µM | HCT-116 > 100 µM
